According to EP0468434B1, “Novel piperidyl ethers and thioethers as inhibitors of cholesterol biosynthesis” (MERRELL DOW PHARMACEUTICALS INC., priority 1990, dated 1992):

Molecular target: T1, oxidosqualene cyclase (Rattus norvegicus, UniProt P48450)
T1 construct: Microsomes, prepared by ultracentrifugation of homogenates of rat liver; from tissue; host or cells: rat liver microsomes plus high speed supernatant fraction
T1 sequence (P48450 1-733): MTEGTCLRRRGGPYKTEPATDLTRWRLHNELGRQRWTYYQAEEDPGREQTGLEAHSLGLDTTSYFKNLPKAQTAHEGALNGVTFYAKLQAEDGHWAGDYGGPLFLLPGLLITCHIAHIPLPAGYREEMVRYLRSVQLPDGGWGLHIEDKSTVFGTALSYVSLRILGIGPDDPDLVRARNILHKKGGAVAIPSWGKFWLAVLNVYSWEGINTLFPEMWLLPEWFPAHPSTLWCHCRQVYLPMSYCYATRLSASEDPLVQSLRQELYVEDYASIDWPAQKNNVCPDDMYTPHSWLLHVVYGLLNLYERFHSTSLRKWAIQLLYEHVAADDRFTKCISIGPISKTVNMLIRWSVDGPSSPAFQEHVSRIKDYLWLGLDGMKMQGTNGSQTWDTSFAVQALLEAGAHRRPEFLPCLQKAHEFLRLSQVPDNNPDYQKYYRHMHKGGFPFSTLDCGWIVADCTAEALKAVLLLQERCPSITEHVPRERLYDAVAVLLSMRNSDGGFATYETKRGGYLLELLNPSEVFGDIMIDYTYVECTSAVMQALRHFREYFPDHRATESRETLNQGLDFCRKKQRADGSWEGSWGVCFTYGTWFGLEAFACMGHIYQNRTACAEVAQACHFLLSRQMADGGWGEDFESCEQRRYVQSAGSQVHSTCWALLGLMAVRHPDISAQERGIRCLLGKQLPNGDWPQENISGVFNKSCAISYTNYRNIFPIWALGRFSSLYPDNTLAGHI
Experiment: Inhibition of cholesterol biosynthesis: oxidosqualene cyclase in rat liver microsomes (TLC or HPLC assay)
Format: biochemical
Conditions: 37°C, 45 minutes, 60µM ³H-squalene, 2.0mM NADPH, 0.01mM FAD, compounds tested at 0.0 to 100.0µM, read-out: Cyclase, IC₅₀
Procedure: The following example illustrates the utility of compounds of formula (1) in inhibiting cholesterol biosynthesis. This example is understood to be illustrative only and is not intended to limit the scope of the present invention in any way. Microsomes, prepared by ultracentrifugation of homogenates of rat liver, are incubated at 37°C for 45 muinutes in the presence of 60µM ³H-squalene, 2.0mM NADPH, 0.01mM FAD, and the high speed supernatant fraction from the microsomal preparation. Blanks, in which NADPH has been omitted, are run simultaneously with the test compounds. Compounds are tested at concentrations of 0.0 to 100.0µM.
• a) TLC Assay: Following incubation, the samples are saponified, standards are added to each sample, and then the reaction products are extracted into hexane. […] Spots containing the reaction products are scraped from the TLC plates and counted for ³H-radioactivity in a scintillation counter. An IC₅₀ for squalene epoxidase and oxidosqualene cyclase is calculated. • b) HPLC Assay: Following incubation, reactions are stopped by the addition of chloroform:methanol, standards are added, then reaction products and standards are extracted into chloroform. […] Chromatographic peaks containing reaction products are monitored for ³H- radioactivity with a flow-through scintillation counter connected in series with the HPLC column. […]

Row | IC50 [µM] | SMILES
1 | 24 | CC(C)CCSCCCCCN1CCCCC1 [Compound A]
2 | > 100 | CCSCCN1CCCCC1 [Compound E, 2-(1-piperidyl)ethyl ethyl sulfide]
